Earlier results, collected in patent US6797806B2, “Fragments of CR1 and their use” (AdProTech Limited, priority 1996, dated 2004).

What was measured:
[1] = system: myeloperoxidase activity (an indicator of neutrophil accumulation); conditions: rat
[2] = in vivo
[3] = in vivo; remark: listed apart in the source
[4] = systemic inhibition of CA over 6 days
[5] = in vivo; remark: listed apart in the source

sCR1: soluble CR1 construct, complement inhibitor, molecular weight 245 kilodaltons
myeloperoxidase activity following traumatic injury [1]: reduce myeloperoxidase activity | survival rates following transplantation [2]: extended survival rates | activity in a reversed passive Arthus reaction [3]: demonstrated in vivo activity | CNS inflammation, demyelination and deposition of complement components [4]: blocked | clinical score [4]: improvements in clinical score | post-ischemic myocardial inflammation and necrosis [5]: suppressed
